Test results reported in PMC8233378, “Acyclic nucleoside phosphonates with adenine nucleobase inhibit Trypanosoma brucei adenine phosphoribosyltransferase in vitro” (Scientific Reports, 2021).
Where a name gives a salt, the structure may show the parent alone. Read-outs that look alike come from different tables or passages of the source.

Tests used:
[1] = biological target: recombinant T. brucei APRT1 (Trypanosoma brucei brucei, UniProt Q57V32); test: Inhibition of recombinant APRT1, continuous spectrophotometric assay (adenine to AMP, 256 nm); type: biochemical; details: recombinant APRT1 280 nM, 1 mM PRib-PP, 60 μM adenine, pH 8.4, 25 °C
Sequence of recombinant T. brucei APRT1 (Q57V32 entry or part of it): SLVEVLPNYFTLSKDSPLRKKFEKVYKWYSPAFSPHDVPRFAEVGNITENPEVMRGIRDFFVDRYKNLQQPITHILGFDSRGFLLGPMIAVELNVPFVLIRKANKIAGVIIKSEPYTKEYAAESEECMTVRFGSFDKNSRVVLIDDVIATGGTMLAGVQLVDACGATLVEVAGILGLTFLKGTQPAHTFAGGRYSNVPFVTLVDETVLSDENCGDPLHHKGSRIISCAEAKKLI
Excerpt: To test if the newly synthesized ANPs with an adenine as a nucleobase can inhibit the activity of the APRT1 and APRT2, both enzymes were overexpressed in E. coli. […] First, we monitored the APRT1 enzyme activity by a continuous spectrophotometric assay measuring the conversion of adenine to AMP at 256 nm.
The T. brucei aprt1 and aprt2 genes were PCR amplified using oligonucleotides listed in Supplementary File S1, digested with BglII or BamHI and XhoI enzymes and ligated into the pSKB3 expression vector. The pSKB3 vector carries a 6 × His-tag and an AcTEV cleavage site upstream of BamHI restriction site. A BglII or BamHI restriction site was introduced at the 5′ end of the respective genes instead of the initiation methionine codon to maintain the 6 × His-tag and AcTEV recognition motif in frame with the genes. The verified plasmids were transformed into the BL21(DE3) E. coli cells. The 6xhis-tagged recombinant APRT1 protein was purified under native conditions using the ÄKTA prime plus instrument. Elution fractions were analyzed by SDS-PAGE, and those containing APRT1 were pooled and dialyzed against 50 mM Tris–HCl, pH 8.0, 150 mM NaCl, 5 mM MgCl2, 10% glycerol. Bradford protein assay (BioRad) was used to determine protein concentrations. The APRT1 recombinant protein was sent for antibody production to Davids Biotechnology (Regensburg, Germany). Recombinant APRT1 was subsequently used in all in vitro assays.
The methodology was adapted from Ref.[6]. Briefly, the enzyme kinetics of APRT1 were measured by a continuous spectrophotometric assay measuring the conversion of adenine to AMP, at 256 nm. The concentration of enzyme in the assay was 140 nM, the concentration of PRib-PP was kept at 1 mM and the adenine concentration varied from 3.75 to 60 μM. The reaction was carried out using a 1.0 cm path length with a UV Visible spectrometer 1601 (Shimadzu) in the reaction buffer (0.1 M Tris, pH 8.4; 0.11 M MgCl2; at 25 °C). The initial velocity (V0 [µM/min]) was calculated using Beer–Lambert law for different concentration of the purine substrate molecules: A = Δε × L × c where A is the measured absorbance, Δε is constant 2100 M^−1 cm^−1 for adenine, c is a concentration of the product formed in one minute (V0) and L is the length of a cuvette. The Km, Vmax and kcat values were calculated using GraphPad Prism 9 according to Michaelis–Menten kinetics. The Ki values of the inhibitors for APRT1 were determined in the same reaction buffer containing 1 mM PRib-PP, 60 μM adenine and 280 nM APRT1. The concentrations of inhibitors in the assay ranged from 1 nM to 100 μM, depending on the activity of the compound. The reaction was preceded by 1 min incubation of the respective enzyme with the given inhibitor. The Ki values were calculated using non-linear regression in GraphPad Prism 9.

[2] = Cytotoxicity of the prodrug in human cells (CellTiter-Glo 2.0), HeLa S3; type: cell-based; details: human, HeLa S3 cells; HeLa S3, 10 µM; read-out: Cytotoxicity of prodrug: HeLaS3 viability
Description: (§1) Compound cytotoxicity was evaluated in Hela S3 cancer cells and non-tumor human dermal fibroblasts (NHDF). All cell lines were obtained from ATCC (Manassas, VA, USA). The cytotoxicity was assayed using CellTiter-Glo® 2.0 detection reagent (Promega, Madison, USA) according to the manufacturer’s protocol.

T. brucei BSF cells = test: Cell cycle analysis of treated trypanosomes (microscopy, flow cytometry with propidium iodide); type: cell-based, Trypanosoma brucei; details: for distribution of cell cycle stages by flow cytometry (DNA content): 1 to 16 µM, 12 h, propidium iodide
Excerpt: The inhibition of the growth of T. brucei BSF in HMI-11 medium in single micromolar EC50 values (Table 1) was somewhat surprising considering the dispensability of APRT enzymes for these cells. […] To get deeper insights into the in vivo action of ANPs on APRT enzyme we tested their cytotoxicity on wild type cells grown in HMI-11^adenine medium. In this medium, the cells rely on the activity of the APRT enzyme to produce AMP and other […]. […] To corroborate this observation, we also tested cells with induced ectopic expression of V5-tagged APRT1 in both types of media and in the presence of the selected ANPs. […] The changes in the distribution of different cell cycle stages within a population were further assessed by flow cytometry assaying the DNA content by staining the cells with propidium iodide (Fig. 8A).
BFS trypanosomes in log phase were resuspended in HMI-11 medium to a density of 2 × 10^5 cells ml^−1. Test compounds at concentrations ranging from 1 to 16 µM were added to the cell suspension followed by 12 h incubation at 37 °C. The cell cycle analysis was performed as described previously. Briefly, approximately 2 × 10^6 cells were washed with PBS and fixed in 1 ml of 70% methanol in 1 × PBS and stored at 4 °C overnight. Following a PBS wash, samples were incubated with 10 µg/ml propidium iodide and 9.6 µg/ml of RNaseA at 37 °C for 45 min. Samples were analyzed on a FACS Canto II (BD) collecting 10,000 gated events.

T. brucei BSF427 = test: Alamar Blue assay, BSF427 cells; type: cell-based; details: Trypanosoma brucei, read-out: T. brucei BSF EC50
Description: The bloodstream form (BSF) T. b. brucei Lister 427 and single marker (SM) strains were cultivated in HMI-11 medium and 10% FBS at 37 °C in a humidified atmosphere at 5% CO2[26]. HMI-11 medium containing dialyzed 10% FBS and only one defined source of the purine base, adenine, was used for selected experiments (50 μM, HMI-11^adenine). The SM cell line constitutively expressing ectopic T7 RNA polymerase and tetracycline repressor was used for the tetracycline-inducible expression of dsRNA and V5-tagged proteins. To generate SKD APRT1 and DKD APRT1/2 RNAi cell lines, the 524 bp and 537 bp fragments of the aprt-I (Tb927.7.1780) and aprt-II (Tb927.7.1790) open reading frames, respectively, were PCR amplified from T. brucei BSF427 genomic DNA with the oligonucleotides (Supplementary File S1). The APRT1 fragment was cloned into the p2T7-TABlue, while the APRT2 fragment was cloned into, into the p2T7-177 plasmid. The p2T7-TABlue plasmid containing the APRT1 fragment was electroporated to SM cells which were subjected to selection with hygromycin (5 µg/ml). Verified SKD APRT1 cell line was then transfected with Not-1 linearized p2T7-177 plasmid containing the APRT2 fragment and the resulting DKD APRT1/2 cell line was selected with phleomycin (2.5 µg/ml). For the inducible expression of V5-tagged APRT1 andAPRT2, the coding sequences of the respective genes were PCR amplified using oligonucleotides listed in Supporting Information S1. The obtained PCR fragments were cloned into the pT7_N-term-V5 vector[6] using BglII or BamHI and XbaI restriction enzymes. Plasmids were then transfected to SM BSF cells. The resulting transfectants were established in medium containing puromycin (0.1 µg/ml). The induction of the dsRNA or tagged proteins was triggered by the addition of 1 µg/ml of tetracycline into the medium.
An Alamar Blue Assay was performed in a 96-well plate format to screen for sensitivity of T. brucei BSF cells to ANPs as previously published. The EC50 values were calculated using non-linear regression in GraphPad Prism 9.

[3] = Cytotoxicity of the prodrug in human cells (CellTiter-Glo 2.0), NHDF; type: cell-based; details: human, normal human dermal fibroblasts (NHDF), NHDF
Description: as §1

[4] = BSF427, HMI-11^adenine medium (50 μM adenine as sole purine)

Nc1ncnc2c1ncn2CCCSCP(=O)(O)O [3a, 5-(Adenin-9-yl)-2-thiapentanephosphonic acid, disodium salt]
Ki ([1]; read-out: APRT1 Ki): 10.1 ± 1.1 µM

Nc1ncnc2c1ncn2CCSCCP(=O)(O)O [3b, 5-(Adenin-9-yl)-3-thiapentanephosphonic acid, disodium salt]
Ki ([1]; read-out: APRT1 Ki): > 30 µM

Nc1ncnc2c1ncn2CCC[S+]([O-])CP(=O)(O)O (centres unmarked) [4a, 5-(Adenin-9-yl)-2-oxo-2-thiapentanephosphonic acid, disodium salt]
Ki ([1]; read-out: APRT1 Ki): > 30 µM

Nc1ncnc2c1ncn2CC[S+]([O-])CCP(=O)(O)O (centres unmarked) [4b, Sodium 5-(adenin-9-yl)-3-oxo-3-thiapentanephosphonate]
Ki ([1]; APRT1 Ki): > 30 µM

Nc1ncnc2c1ncn2CCN(CCNCCO)CCP(=O)(O)O [9a, 9-[(N-(2-((2-Hydroxyethyl)amino)ethyl)-N-(2-phosphonoethyl))-2-aminoethyl]adenine triethylammonium salt]
Ki ([1]; read-out: APRT1 Ki): 4.92 ± 0.43 µM

N#CCCN(CCn1cnc2c(N)ncnc21)CCP(=O)(O)O [9b, 9-[(N-(2-Cyanoethyl)-N-(2-phosphonoethyl))-2-aminoethyl]adenine]
Ki ([1]; read-out: APRT1 Ki): > 30 µM

Nc1ncnc2c1ncn2CCN(CCP(=O)(O)O)CCP(=O)(O)O [9c, 9-[(N,N-(Bis-2-phosphonoethyl))-2-aminoethyl]adenine]
Ki ([1]; read-out: APRT1 Ki): > 30 µM

Nc1ncnc2c1ncn2CCN(CCOCP(=O)(O)O)CCP(=O)(O)O [9d, 9-[(N-Phosphonoethyl-N-phosphonomethoxyethyl)-2-aminoethyl]adenine]
Ki ([1]; read-out: APRT1 Ki): 3.88 ± 0.29 µM

Nc1ncnc2c1ncn2CCN(CCCC(=O)O)CCP(=O)(O)O [9f, 9-[(N-(Carboxypropyl)-N-(2-phosphonoethyl))-2-aminoethyl]adenine]
Ki ([1]; read-out: APRT1 Ki): > 30 µM

Nc1ncnc2c1ncn2CCN(CCOCCP(=O)(O)O)CCP(=O)(O)O [9g, 9-[(N-Phosphonoethyl-N-phosphonoethoxyethyl)-2-aminoethyl]adenine]
Ki ([1]; read-out: APRT1 Ki): 3.07 ± 0.25 µM

CC(C)OC(=O)[C@H](Cc1ccccc1)NP(=O)(CSCCCn1cnc2c(N)ncnc21)N[C@@H](Cc1ccccc1)C(=O)OC(C)C [24a, 9-(5-(Bis((S-1-isopropoxycarbonyl-2-phenylethyl)amino)phosphoryl)-4-thiapentyl)adenine]
viability at 10 µM [2]: 99% | direct microscopic observation of exposed T. brucei cells (T. brucei BSF cells): problems in the cell cycle | distribution of cell cycle stages by flow cytometry (DNA content) (T. brucei BSF cells): increase in the number of cells in G1-phase | EC50 (T. brucei BSF427; [4]): 6.36 µM | EC50 (T. brucei BSF427; BSF427, HMI-11 medium): 6.16 µM | viability at 10 µM [3]: 89%

CC(C)OC(=O)[C@H](Cc1ccccc1)NP(=O)(CCSCCn1cnc2c(N)ncnc21)N[C@@H](Cc1ccccc1)C(=O)OC(C)C [24b, 9-(5-(Bis((S-1-isopropoxycarbonyl-2-phenylethyl)amino)phosphoryl)-3-thiapentyl)adenine]
viability at 10 µM [2]: 98% | direct microscopic observation of exposed T. brucei cells (T. brucei BSF cells): problems in the cell cycle | distribution of cell cycle stages by flow cytometry (DNA content) (T. brucei BSF cells): increase in the number of cells in G1-phase | EC50 (T. brucei BSF427; [4]): 6.16 µM | EC50 (T. brucei BSF427; BSF427, HMI-11 medium): 6.36 µM | viability at 10 µM [3]: 89%

Nc1ncnc2c1ncn2CCN(CCN(CCP(=O)(O)O)CCP(=O)(O)O)CCP(=O)(O)O [compound 17, (2-((2-((2-(Adenine-9-yl)ethyl)(2-phosphonoethyl)amino)ethyl)(2-phosphonoethyl)amino)ethyl)phosphonic acid]
Ki ([1]; read-out: APRT1 Ki): 21.3 ± 2.1 µM

Nc1ncnc2c1ncn2CC(COCCP(=O)(O)O)OCCP(=O)(O)O (centres unmarked) [compound 20, 4-(Adenin-9-ylmethyl)-3,6-dioxaoctane-1,8-diphosphonic acid]
Ki ([1]; read-out: APRT1 Ki): 27.7 ± 4.5 µM

Nc1ncnc2c1ncn2CCOC(CO)CP(=O)(O)O (centres unmarked) [compound 21, 9-[2-(3-Hydroxy-1-phosphonopropan-2-yloxy)ethyl]adenine]
Ki ([1]; read-out: APRT1 Ki): > 30 µM

Nc1ncnc2c1ncn2CC(COCP(=O)(O)O)COCP(=O)(O)O [compound 22, {[(2-[(Adenin-9-yl)methyl]propane-1,3-diyl)bis(oxy)]bis(methylene)}diphosphonic acid]
Ki ([1]; read-out: APRT1 Ki): 5.15 ± 0.69 µM

CCOC(=O)[C@H](Cc1ccccc1)NP(=O)(COCC(COCP(=O)(N[C@@H](Cc1ccccc1)C(=O)OCC)N[C@@H](Cc1ccccc1)C(=O)OCC)Cn1cnc2c(N)ncnc21)N[C@@H](Cc1ccccc1)C(=O)OCC [compound 25, Tetra-(L-phenylalanineethyl ester) prodrug of {[(2-[(adenin-9-yl)methyl]propane-1,3-diyl)bis(oxy)]bis(methylene)}diphosphonic acid]
viability at 10 µM [2]: 99% | EC50 (T. brucei BSF427; BSF427, HMI-11 medium): 3.7 µM | viability at 10 µM [3]: 90%

CCOC(=O)[C@H](Cc1ccccc1)NP(=O)(CCOCC(Cn1cnc2c(N)ncnc21)OCCP(=O)(N[C@@H](Cc1ccccc1)C(=O)OCC)N[C@@H](Cc1ccccc1)C(=O)OCC)N[C@@H](Cc1ccccc1)C(=O)OCC (stereo partly drawn) [compound 26, Tetra-(L-phenylalanineethyl ester) prodrug of (2-[3-(adenin-9-yl)-2-(2-bis(hydroxyphosphoryl)ethoxy)propoxy]ethyl}phosphonic acid]
viability at 10 µM [2]: 100% | EC50 (T. brucei BSF427; BSF427, HMI-11 medium): 1.55 µM | viability at 10 µM [3]: 88%
